Source: patent US20110059909A1, “METHODS FOR TREATING INFLAMMATORY DISORDERS” (priority 2004, published 2011)

Key:
[1] = cited from earlier work
[2] = test system: small GTPase Ras; assay: Quantification of Ras activation (GST-Raf-1 RBD pull-down) in primary astrocytes; assay type: cell-based, rat; conditions: for LacCer-mediated Ras activation: NAC 10 mM or PDTC 100 μM 1 h, LacCer 5 min
Method: After stimulation, primary astrocytes in 6-well plates were washed with ice cold PBS and lysed in membrane lysis buffer (MLB; 0.5 ml of 25 mM HEPES, pH 7.5, 150 mM NaCl, 1% Igepal CA-630, 0.25% sodium deoxycholate, 10% glycerol, 10 mM MgCl2, 1 mM EDTA, 25 mM NaF, 1 mM of sodium orthovanadate, and EDTA free Complete™ protease inhibitor cocktail). After centrifugation (5,000×g) at 4° C. for 5 min, supernatant was used for Ras activation assay. One hundred μg of supernatant was used for binding with agarose conjugated Ras-binding domain (RBD) of Raf-1 which was expressed in BL21 (Invitrogen), Escherichia coli strain, transformed by pGEX-2T-GST-RBD in the presence of 0.1 mM of IPTG as described previously (Herrmann et al., 1995). The binding reaction was performed at 4° C. for 30 min in MLB. Following washing with MLB three times, Ras-RBD complex were denatured by adding of 2×SDS sample buffer. Ras protein was identified by western blot analysis with Ras antibodies from Upstate Biotechnology.

[3] = test system: rat primary astrocytes; assay: Assay for NO production (nitrite, Griess reagent) in LPS/IFNγ-stimulated primary astrocytes; assay type: cell-based; conditions: for LPS/IFNγ-induced NO production: primary astrocytes, LPS/IFNγ (1 μg/ml; 10 U/ml), NO at 24 h; for Reversal of PDMP-mediated inhibition of LPS/IFNγ-induced NO production: PDMP 50 μM plus exogenous glycosphingolipid 5 and 10 μM, 0.5 h before LPS/IFNγ
Method: (§1) Primary astrocyte-enriched cultures were prepared from the whole cortex of one day old Sprague-Dawley rats as described earlier (Pahan et al., 1998b). Briefly, the cortex was rapidly dissected in ice-cold calcium/magnesium free Hanks Balanced Salt Solution (HBSS) (Gibco, Grand Island, N.Y.) at pH 7.4 as described previously (Won et al., 2001). The tissue was then minced, incubated in HBSS containing trypsin (2 mg/ml) for 20 min and washed twice in plating medium containing 10% FBS and 10 μg/ml gentamicin, and then disrupted by triturating through a Pasteur pipette following which cells were seeded in 75-cm^2 culture flasks (Falcon, Franklin, N.J.). After incubation at 37° C. in 5% CO2 for 1 day, the medium was completely changed to the culture medium (DMEM containing 5% FBS and 10 μg/ml gentamicin). The cultures received half exchanges with fresh medium twice a week. After 14-15 days the cells were shaken for at least 24 h on an orbital shaker to remove the microglia and then seeded on multi-well tissue culture dishes. The cells were incubated with serum-free DMEM for 24 h prior to the incubation with drugs.
Cells were cultured in 12-well plastic tissue culture plates. Following appropriate treatment, production of NO was determined by an assay of the culture supernatant for nitrite (Green et al., 1982). Briefly, 100 μl of culture supernatant was allowed to react with 100 μl of Griess reagent. The optical density of the assay samples was measured spectrophotometrically at 570 nm. Nitrite concentrations were calculated from a standard curve derived from the reaction of NaNO2 in fresh media.

[4] = test system: iNOS; assay: iNOS mRNA (RT-PCR) and protein (immunoblot) in LPS/IFNγ-stimulated primary astrocytes; assay type: cell-based, rat; conditions: primary astrocytes; LPS/IFNγ (1 μg/ml; 10 U/ml); mRNA 6 h, protein 24 h
Method: as §1
(§2) For iNOS protein, the cells were washed with cold Tris buffered saline (TBS; 20 mM Trizma base, and 137 mM NaCl, pH 7.5), lysed in 1×SDS sample loading buffer (62.5 mM Trizma base, 2% w/v SDS, 10% glycerol), following sonication and centrifugation at 15,000×g for 5 min, the supernatant was used for the iNOS western immunoblot assay. The protein concentration of samples was determined with the detergent compatible protein assay reagent (Bio-Rad Laboratories, CA) using bovine serum albumin (BSA) as the standard. Sample was boiled for 3 min with 0.1 volumes of 10% β-mercaptoethanol and 0.5% bromophenol blue mix. Fifty μg of total cellular protein was resolved by electrophoresis on 8 or 12% polyacrylamide gels, electro-transferred to polyvinylidene difluoride (PVDF) filter and blocked with Tween 20 containing Tris-buffered saline (TBST; 10 mM Trizma base-pH 7.4, 1% Tween 20, and 150 mM NaCl) with 5% skim milk. After incubation with antiserum against iNOS (BD PharMingen, CA), rat GalT-2 (Abjent Inc., CA), H-Ras (Upstate Biotechnology, CA), GFAP (Santa Cruz Biotech, CA), or phospho-specific ERK1/2 (Cell signaling Tech Inc., MA), or pIκ-B (Signal Transduction), in PVDF buffer for 2 h at room temperature, the filters were washed 3 times with TBST buffer and then incubated with horseradish peroxidase conjugated anti-rabbit or mouse IgG for 1 h. The membranes were detected by autoradiography using ECL-plus (Amersham Pharmacia Biotech) after washing with TBST buffer.
5 μg total RNA was treated with 2 U DNAse I (bovine pancreas, Sigma) for 15 min at room temperature in 18 μl volume containing 1×PCR buffer and 2 mM MgCl2. It was then inactivated by incubation with 2 μl of 25 mM EDTA at 65° C. for 15 min. 2 μl of random primers were added and annealed to the RNA according to the manufacturer's protocol. cDNA was synthesized in a 50 μl reaction containing 5 μg of total RNA and 50-100 U reverse transcriptase by incubating the tubes at 42° C. for 60 min. PCR amplification was conducted in 25 μl of reaction mixture with 1.0 μl of cDNA, […] of each primer and under the manufacturer's Taq polymerase conditions (Takara, Takara Shuzo Co. Ltd, Japan). The sequence of primers used for PCR amplification are as follows; iNOS, (Forward-5′ […] 3′, SEQ ID NO:3; Reverse-5′ […] 3′, SEQ ID NO:4), GalT-2 (Forward-5′ tggtacaagctagaggc 3′, SEQ ID NO:5; Reverse-5′ gcatggcacattgaa C-3′, SEQ ID NO:6), GAPDH (Forward-5′ […] 3′, SEQ ID NO:7; Reverse-5′ cttcacgaagttgtcattgagggca3′, SEQ ID NO:8), TNFα (Forward-5′ […] g-3′, SEQ ID NO:9; Reverse-5′[…]-3′, SEQ ID NO:10) and IL-1β (Forward-5′[…]-3′, SEQ ID NO:11; reverse-5′[…]-3′, SEQ ID NO:12).

[5] = test system: rat primary astrocytes; assay: BrdU incorporation assay, proliferation of primary astrocytes; assay type: cell-based; conditions: for Proliferation of astrocytes induced by the substance itself: increasing doses (1, 5 and 10 μM for GSL), 18 h
Method: as §1
Proliferation of primary astrocytes was assayed by using the Cell proliferation ELISA, BrdU colorimetric assay kit (Roche, Germany) according to manufacturer's protocol. Briefly, cells were seeded in 96 well plates in quadruplicate and following overnight serum starvation were stimulated with mitogenic stimulants. 2 h before termination of proliferation assay, BrdU (10 μM) was added to each well following which cells were fixed and levels of incorporated BrdU were assayed by using a conjugated anti-BrdU enzyme. Colorimetric analysis was done by measuring absorbance at 370 nm using a spectramax MAX 190 (Molecular devices) multi-well plate reading spectrophotometer.

[6] = test system: ERK1/2; assay: ERK1/2 activation (phospho-ERK1/2 immunoblot) in primary astrocytes; assay type: cell-based, rat; conditions: pretreated 0.5 h, TNFα 20 min
Method: as §2

[7] = test system: GFAP; assay: GFAP mRNA (real time PCR) and protein (immunoblot) in TNFα-stimulated primary astrocytes; assay type: cell-based, rat
Method: as §2

[8] = test system: PI-3K; assay: PI-3 kinase activity assay; assay type: cell-based, rat; conditions: exogenous lipid
Method: Cells after stimulation in serum-free DMEM/F-12 were lysed with ice-cold lysis buffer containing 1% (vol/vol) NP-40,100 mM NaCl, 20 mM Tris (pH 7.4), 10 mM iodoacetamide, 10 mM NaF, 1 mM sodium orthovanadate, 1 mM […], 1 μg/ml leupeptin, 1 μg/ml antipain, 1 mg/ml aprotinin, and 1 μg/ml pepstatin A. Lysates were incubated at 4° C. for 15 min, followed by centrifugation at 13,000 g for 15 min. The supernatant was pre-cleared with protein G-Sepharose beads (Pharmacia Biotech) for 1 h at 4° C. followed by the addition of 1 μg/ml p85α monoclonal antibody. After 2 h of incubation at 4° C., protein G-Sepharose beads were added and the resulting mixture was further incubated for 1 h at 4° C. The immunoprecipitates were washed twice with lysis buffer, once with phosphate-buffered saline (PBS), once with 0.5 M LiCl and 100 mM Tris (pH 7.6), once in water, and once in kinase buffer (5 mM MgCl2, 0.25 mM EDTA, 20 mM HEPES, pH 7.4). PI-3kinase activity was determined as already described (Ward et al., 1992; Pahan et al., 1999) using a lipid mixture of 100 μl of 0.1 mg/ml PI and 0.1 mg/ml phosphatidylserine dispersed by sonication in 20 mM HEPES (pH 7.0) and 1 mM EDTA. The reaction was initiated by the addition of 20 of [γ-32P] […]

## CCCCN1CC(O)C(O)C(O)C1CO [Miglustat, 1,5-(butylimino)-1,5-dideoxy-D-glucitol]
[1]
  Solubility in water: soluble in water

## CC(=O)N[C@@H](CS)C(=O)O [NAC, N-Acetyl cysteine]
[2]
  LacCer-mediated Ras activation: inhibited
[3]
  LPS/IFNγ-induced NO production: blocked
[4]
  LPS/IFNγ-induced iNOS mRNA and protein levels: blocked

## COc1cccc(-c2cc(=O)c3ccccc3o2)c1N [PD98059]
[5]; pretreated 0.5 h (AS: 48 h after transfection), TNFα 1 ng/ml 18 h, BrdU incorporation
  TNFα-induced astrocyte proliferation: inhibited
[6]
  TNFα-induced ERK1/2 phosphorylation: inhibited
[3]
  LPS/IFNγ-induced NO production: inhibition
[4]
  LPS/IFNγ-induced iNOS mRNA and protein levels: inhibition
[7]; TNFα 1 ng/ml, mRNA 8 h, protein 18 h
  TNFα-induced GFAP mRNA and protein expression: inhibited

## S=C(S)N1CCCC1 [PDTC, pyrrolidine dithiocarbamate]
[2]
  LacCer-mediated Ras activation: inhibited
[3]
  LPS/IFNγ-induced NO production: blocked
[4]
  LPS/IFNγ-induced iNOS mRNA and protein levels: blocked

## CCCCCCCCCCCCC/C=C/[C@@H](O)[C@@H](N)COP(=O)(O)O [S1P, sphingosine-1-phosphate]
[5]; PDMP 25 μM plus exogenous lipid
  Reversal of PDMP-mediated inhibition of TNFα-induced proliferation: could not be reversed
[5]; exogenous lipid
  Reversal of DMS-mediated inhibition of TNFα-induced proliferation: reversed
  Reversal of PD98059-mediated inhibition of TNFα-induced proliferation: could not be reversed
[5]; BrdU incorporation
  Proliferation of astrocytes induced by the substance itself: induced astrocyte proliferation
[8]
  Reversal of DMS-mediated inhibition of PI-3K activation: able to reverse
[2]; exogenous lipid
  Reversal of DMS-mediated inhibition of Ras activation: reverses
[7]; exogenous lipid
  Reversal of DMS-mediated inhibition of TNFα-induced GFAP expression: reversed

## Glucosylceramide [GluCer]
[5]; BrdU incorporation
  Proliferation of astrocytes induced by the substance itself: did not have a similar effect
[3]
  Reversal of PDMP-mediated inhibition of LPS/IFNγ-induced NO production: did not reverse

## galactosylceramide [GalCer]
[5]; BrdU incorporation
  Proliferation of astrocytes induced by the substance itself: neither induced proliferation
[3]
  Reversal of PDMP-mediated inhibition of LPS/IFNγ-induced NO production: did not reverse
